The text below walks through data of patent US4108986A, “N^2 -Arylsulfonyl-L-argininamides and the pharmaceutically acceptable salts thereof” (Mitsubishi Chemical Industries Limited, priority 1974, dated 1978).

Structures are written as SMILES.

One data set relates to mice. Kind of data set: acute toxicity (LD50), intraperitoneal administration in mice. The format is in vivo. The settings on record: mice (male, 20 g). The text has this:
Representative LD50 values, for example, for N^2 -(6,7-dimethoxy-2-naphthylsulfonyl)-L-arginyl-N-butylalanine and N^2 -(4,6-dimethoxy-2-naphthylsulfonyl)-L-arginyl-N-cyclohexylmethylalanine are above 1,500 milligrams per kilogram each.

In a further data set the target is T1, thrombin (Bos taurus, UniProt P00735).
T1 construct: purchased Mochida Pharmaceutical Co., Ltd
As to the kind of experiment: fibrinogen coagulation time (thrombin added to bovine fibrinogen solution). The format is biochemical. The settings on record: thrombin 5 units/ml, borate saline buffer pH 7.4, 25° C, normal coagulation time 50-55 seconds prolonged to 100-110 seconds. The procedure: The measurement of the fibrinogen coagulation time was conducted as follows:
Immediately after mixing, the reaction mixture was transferred from the ice bath to a bath maintained at 25° C. Coagulation times were taken as the period between the time of transference to the 25° C bath and the time of the first appearance of fibrin threads.
The term "concentration required to prolong the coagulation time by a factor of two" is the concentration of an active ingredient required to prolong the normal coagulation time 50-55 seconds to 100-110 seconds.

As for `CCCCN(C(=O)[C@H](CCCNC(=N)N)NS(=O)(=O)c1ccc2cc(OC)c(OC)cc2c1)[C@@H](C)C(=O)O` [compound 2, N^2-(6,7-dimethoxy-2-naphthylsulfonyl)-L-arginyl-N-butylalanine], the “acute toxicity values (LD50)” value in the data set with mice is on record as “above 1,500 milligrams per kilogram”.
Consider `CCCCCN(C(=O)[C@H](CCCNC(=N)N)NS(=O)(=O)c1ccc2cc(OC)c(OC)cc2c1)[C@@H](C)C(=O)O` [compound 4, N^2-(6,7-dimethoxy-2-naphthylsulfonyl)-L-arginyl-N-pentylalanine], for which the “Concentration required to prolong the coagulation time by a factor of two” value (shortened to “Concentration required”) on thrombin was found to be 2.0 µM.
For the compound `COc1cc2ccc(S(=O)(=O)N[C@@H](CCCNC(=N)N)C(=O)N(Cc3ccccc3)[C@@H](C)C(=O)O)cc2cc1OC` [compound 6, N^2-(6,7-dimethoxy-2-naphthylsulfonyl)-L-arginyl-N-benzylalanine], the “Concentration required” value on thrombin stood at 2.5 µM.
Same read-out and setting: then `COc1cc2ccc(S(=O)(=O)N[C@@H](CCCNC(=N)N)C(=O)N(CCc3ccccc3)[C@@H](C)C(=O)O)cc2cc1OC` [compound 8, N^2-(6,7-dimethoxy-2-naphthylsulfonyl)-L-arginyl-N-phenethylalanine], with 1.5 µM.
Turning to `COc1ccc2cc(S(=O)(=O)N[C@@H](CCCNC(=N)N)C(=O)N(CC3CCCCC3)[C@@H](C)C(=O)O)cc(OC)c2c1` [compound 12, N^2-(4,6-dimethoxy-2-naphthylsulfonyl)-L-arginyl-N-cyclohexylmethylalanine], the “Concentration required” value on thrombin turned out to be 4.5 µM. The “acute toxicity values (LD50)” value with mice is listed as “above 1,500 milligrams per kilogram”.
As for `COCCN(C(=O)[C@H](CCCNC(=N)N)NS(=O)(=O)c1ccc2cc(OC)c(OC)cc2c1)[C@@H](C)C(=O)O` [compound 15, N^2-(6,7-dimethoxy-2-naphthylsulfonyl)-L-arginyl-N-(2-methoxyethyl)alanine], on thrombin, the “Concentration required” value turned out to be 5 µM.
On the same count and under the same terms, the result for `COc1cc2ccc(S(=O)(=O)N[C@@H](CCCNC(=N)N)C(=O)N(C)[C@@H](Cc3ccccc3)C(=O)O)cc2cc1OC` [compound 18, N^2-(6,7-dimethoxy-2-naphthylsulfonyl)-L-arginyl-N-methylphenylalanine] reads 2 µM; that for `COc1ccc2ccc(S(=O)(=O)N[C@@H](CCCNC(=N)N)C(=O)N(C)[C@@H](Cc3ccccc3)C(=O)O)cc2c1` [compound 20, N^2-(7-methoxy-2-naphthylsulfonyl)-L-arginyl-N-methyl-phenylalanine], 2.5 µM.
Still for that read-out and setting: then `CCC[C@H](NC(=O)[C@H](CCCNC(=N)N)NS(=O)(=O)c1ccc2cc(OC)c(OC)cc2c1)C(=O)O` [compound 21, N^2-(6,7-dimethoxy-2-naphthylsulfonyl)-L-arginylnorvaline], with 15 µM.
